# According to patent US8637525B2, “Compounds for the reduction of beta-amyloid production” (Bristol-Myers Squibb Company, priority 2009, dated 2014):
# Counter-ions that a name gives are not always drawn.
# Test system: Aβ1-42 production
# Test: Cellular assay for inhibition of Aβ1-42 production (H4 APP751 SWE clone 8.20)
# Assay type: cell-based
# Conditions: 19 h, H4 APP751 SWE clone 8.20 cells, 19 h incubation; class symbols; read-out: Activity Rating (Aβ42 cellular IC50)
# Protocol: Cellular Assays for Inhibition of Aβ1-40 and Aβ1-42 Production
# H4 cells stably transfected with APP751 containing the Swedish mutation (H4 APP751 SWE clone 8.20, developed at BMS) were maintained in log phase through twice weekly passage at a 1:20 split. […] Following incubation for 19 h in 5% CO2 at 37° C., plates were briefly centrifuged (1000 rpm, 5 min). A 10 μl aliquot from each well was transferred to a second assay plate (Costar 3709) for Aβ40 measurements. Antibody cocktails were freshly prepared by dilution into 40 mM Tris-HCl (pH 7.4) with 0.2% BSA and added to assay plates. For Aβ42 measurements, antibodies specific for the Aβ42 neoepitope (565, developed at BMS; conjugated to the Wallac reagent (Perkin Elmer)) and the N-terminal sequence of Aβ peptide (26D6, developed at SIBIA; conjugated to APC (Perkin Elmer)) were mixed and 20 μl of the mixture was added to each well of the incubated cell plate yielding a final concentration of 0.8 ng/well 565 and 75 ng/well 26D6. For the Aβ40 measurements, antibodies specific for the Aβ40 neoepitope (TSD, developed at BMS; conjugated to the Wallac reagent (Perkin Elmer)) and 26D6 as described above were mixed and 20 μl of the mixture was added to the 10 μl aliquots which had been removed previously from the cell plate yielding a final concentration of 1.6 ng/well TSD and 17.5 ng/well 26D6. Assay plates containing antibodies were sealed with aluminum foil and incubated overnight at 4° C. Signal was determined using a Viewlux counter (Perkin Elmer) and IC50 values determined using curve fitting in CurveMaster (Excel Fit based).
row,IC50 [nM],SMILES
1,1.5 to 9.9,"CNc1nc(Nc2ccc(-n3cnc(Cl)c3)c(OC)c2)nc2c1CCC2c1ccc(Cl)cc1 (racemic) [Example 94, N^2-(4-(4-Chloro-1H-imidazol-1-yl)-3-methoxyphenyl)-7-(4-chlorophenyl)-N^4-methyl-6,7-dihydro-5H-cyclopenta[d]pyrimidine-2,4-diamine]"
2,1.5 to 9.9,"COc1cc(Nc2nc3c(c(N(C)C)n2)CCC3c2ccc(F)c(F)c2)ccc1-n1cnc(Cl)c1 (racemic) [Example 95, N^2-(4-(4-Chloro-1H-imidazol-1-yl)-3-methoxyphenyl)-7-(3,4-difluorophenyl)-N^4,N^4-dimethyl-6,7-dihydro-5H-cyclopenta[d]pyrimidine-2,4-diamine]"
3,1.5 to 9.9,"CNc1nc(Nc2ccc(-n3cnc(Cl)c3)c(OC)c2)nc2c1CCC2c1ccc(F)c(F)c1 (racemic) [Example 96, N^2-(4-(4-Chloro-1H-imidazol-1-yl)-3-methoxyphenyl)-7-(3,4-difluorophenyl)-N^4-methyl-6,7-dihydro-5H-cyclopenta[d]pyrimidine-2,4-diamine]"
4,1.5 to 9.9,"CNc1nc(Nc2ccc(-n3cnc(Cl)c3)c(OC)c2)nc2c1CCC2c1ccc(OC(F)(F)F)cc1 (racemic) [Example 97, N^2-(4-(4-Chloro-1H-imidazol-1-yl)-3-methoxyphenyl)-N^4-methyl-7-(4-(trifluoromethoxy)phenyl)-6,7-dihydro-5H-cyclopenta[d]pyrimidine-2,4-diamine]"
5,10 to 100,"CCNc1nc(Nc2ccc(-n3cnc(Cl)c3)c(OC)c2)nc2c1CCC2c1ccc(OC(F)(F)F)cc1 (racemic) [Example 98, N^2-(4-(4-Chloro-1H-imidazol-1-yl)-3-methoxyphenyl)-N^4-ethyl-7-(4-(trifluoromethoxy)phenyl)-6,7-dihydro-5H-cyclopenta[d]pyrimidine-2,4-diamine]"
6,1.5 to 9.9,"COc1cc(Nc2nc3c(c(N(C)C)n2)CCC3c2ccc(OC(F)(F)F)cc2)ccc1-n1cnc(Cl)c1 (racemic) [Example 100, N^2-(4-(4-Chloro-1H-imidazol-1-yl)-3-methoxyphenyl)-N^4,N^4-dimethyl-7-(4-(trifluoromethoxy)phenyl)-6,7-dihydro-5H-cyclopenta[d]pyrimidine-2,4-diamine]"
7,10 to 100,"COc1cc(Nc2nc3c(c(N4CCC4)n2)CCC3c2ccc(OC(F)(F)F)cc2)ccc1-n1cnc(Cl)c1 (racemic) [Example 101, 4-(Azetidin-1-yl)-N-(4-(4-chloro-1H-imidazol-1-yl)-3-methoxyphenyl)-7-(4-(trifluoromethoxy)phenyl)-6,7-dihydro-5H-cyclopenta[d]pyrimidin-2-amine]"
8,1.5 to 9.9,"CNc1nc(Nc2ccc(-n3cnc(Cl)c3)c(OC)c2)nc2c1CCC2c1cc(F)cc(F)c1 (racemic) [Example 102, N^2-(4-(4-Chloro-1H-imidazol-1-yl)-3-methoxyphenyl)-7-(3,5-difluorophenyl)-N^4-methyl-6,7-dihydro-5H-cyclopenta[d]pyrimidine-2,4-diamine]"
9,1.5 to 9.9,"CNc1nc(Nc2ccc(-n3cnc(Cl)c3)c(OC)c2)nc2c1CCC2c1cc(F)c(F)c(F)c1 (racemic) [Example 103, N^2-(4-(4-chloro-1H-imidazol-1-yl)-3-methoxyphenyl)-N^4-methyl-7-(3,4,5-trifluorophenyl)-6,7-dihydro-5H-cyclopenta[d]pyrimidine-2,4-diamine]"
10,10 to 100,"COc1cc(Nc2nc3c(c(N4CCC(F)(F)C4)n2)CCC3c2cc(F)c(F)c(F)c2)ccc1-n1cnc(Cl)c1 (racemic) [Example 107, N-(4-(4-Chloro-1H-imidazol-1-yl)-3-methoxyphenyl)-4-(3,3-difluoropyrrolidin-1-yl)-7-(3,4,5-trifluorophenyl)-6,7-dihydro-5H-cyclopenta[d]pyrimidin-2-amine]"
11,1.5 to 9.9,"CCNc1nc(Nc2ccc(-n3cnc(Cl)c3)c(OC)c2)nc2c1COCC2c1cc(F)cc(F)c1 (racemic) [Example 112, N2-(4-(4-chloro-1H-imidazol-1-yl)-3-methoxyphenyl)-8-(3,5-difluorophenyl)-N4-ethyl-7,8-dihydro-5H-pyrano[4,3-d]pyrimidine-2,4-diamine, TFA]"
12,1.5 to 9.9,"COc1cc(Nc2nc3c(c(N4CC(F)(F)C4)n2)COCC3c2ccc(F)c(F)c2)ccc1-n1cnc(Cl)c1 (racemic) [Example 114, N-(4-(4-chloro-1H-imidazol-1-yl)-3-methoxyphenyl)-4-(3,3-difluoroazetidin-1-yl)-8-(3,4-difluorophenyl)-7,8-dihydro-5H-pyrano[4,3-d]pyrimidin-2-amine, TFA]"
13,1.5 to 9.9,"CNc1nc(Nc2ccc(-n3cnc(Cl)c3)c(OC)c2)nc2c1COCC2c1ccc(F)c(F)c1 (racemic) [Example 115, N2-(4-(4-chloro-1H-imidazol-1-yl)-3-methoxyphenyl)-8-(3,4-difluorophenyl)-N4-methyl-7,8-dihydro-5H-pyrano[4,3-d]pyrimidine-2,4-diamine, TFA]"
14,10 to 100,"CCNc1nc(Nc2ccc(-n3ncnc3C)c(F)c2)nc2c1COCC2c1ccc(F)c(F)c1 (racemic) [Example 116, 8-(3,4-difluorophenyl)-N4-ethyl-N2-(3-fluoro-4-(5-methyl-1H-1,2,4-triazol-1-yl)phenyl)-7,8-dihydro-5H-pyrano[4,3-d]pyrimidine-2,4-diamine, TFA]"
15,10 to 100,"CCNc1nc(Nc2ccc(-n3cnc(Cl)c3)c(OC)c2)nc2c1COCC2c1ccc(C(F)(F)F)cc1 (racemic) [Example 118, N2-(4-(4-chloro-1H-imidazol-1-yl)-3-methoxyphenyl)-N4-ethyl-8-(4-(trifluoromethyl)phenyl)-7,8-dihydro-5H-pyrano[4,3-d]pyrimidine-2,4-diamine, TFA]"
16,10 to 100,"CCNc1nc(Nc2ccc(-n3ncnc3C)c(F)c2)nc2c1COCC2c1ccc(C(F)(F)F)cc1 (racemic) [Example 119, N4-ethyl-N2-(3-fluoro-4-(5-methyl-1H-1,2,4-triazol-1-yl)phenyl)-8-(4-(trifluoromethyl)phenyl)-7,8-dihydro-5H-pyrano[4,3-d]pyrimidine-2,4-diamine, TFA]"
17,10 to 100,"CNc1nc(Nc2ccc(-n3cnc(Cl)c3)c(OC)c2)nc2c1COCC2c1ccc(C(F)(F)F)cc1 (racemic) [Example 120, N2-(4-(4-chloro-1H-imidazol-1-yl)-3-methoxyphenyl)-N4-methyl-8-(4-(trifluoromethyl)phenyl)-7,8-dihydro-5H-pyrano[4,3-d]pyrimidine-2,4-diamine, TFA]"
18,10 to 100,"CCNc1nc(Nc2ccc(-n3cnc(Cl)c3)c(OC)c2)nc2c1COCC2c1ccc(C#N)cc1 (racemic) [Example 121, 4-(2-(4-(4-chloro-1H-imidazol-1-yl)-3-methoxyphenylamino)-4-(ethylamino)-7,8-dihydro-5H-pyrano[4,3-d]pyrimidin-8-yl)benzonitrile, TFA]"
19,10 to 100,"CCN(C)c1nc(Nc2ccc(-n3cnc(Cl)c3)c(OC)c2)nc2c1CCCC2c1ccccc1 (racemic) [Example 124, N^2-(4-(4-Chloro-1H-imidazol-1-yl)-3-methoxyphenyl)-N^4-ethyl-N^4-methyl-8-phenyl-5,6,7,8-tetrahydroquinazoline-2,4-diamine]"
20,10 to 100,"COc1cc(Nc2nc3c(c(N(C)C)n2)CCCC3c2ccc(F)cc2)ccc1-n1cnc(Cl)c1 (racemic) [Example 127, N^2-(4-(4-Chloro-1H-imidazol-1-yl)-3-methoxyphenyl)-8-(4-fluorophenyl)-N^4,N^4-dimethyl-5,6,7,8-tetrahydroquinazoline-2,4-diamine]"
21,10 to 100,"CNc1nc(Nc2ccc(-n3cnc(Cl)c3)c(OC)c2)nc2c1CN(S(C)(=O)=O)CC2c1ccccc1 (racemic) [Example 129, N2-(4-(4-chloro-1H-imidazol-1-yl)-3-methoxyphenyl)-N4-methyl-6-(methylsulfonyl)-8-phenyl-5,6,7,8-tetrahydropyrido[4,3-d]pyrimidine-2,4-diamine]"
22,10 to 100,"CNc1nc(Nc2ccc(-n3cnc(Cl)c3)c(OC)c2)nc2c1C(=O)CC2c1ccccc1 (racemic) [Example 200, (±)-2-(4-(4-chloro-1H-imidazol-1-yl)-3-methoxyphenylamino)-4-(methylamino)-7-phenyl-6,7-dihydro-5H-cyclopenta[d]pyrimidin-5-one]"

# Same assay, conditions: 19 h, H4 APP751 SWE clone 8.20 cells, 19 h incubation; read-out: Activity Rating (Aβ42 cellular IC50), numeric value
row,IC50 [nM],SMILES
1,19,"COc1cc(Nc2nc3c(c(N4CC(F)(F)C4)n2)CCC3c2ccc(OC(F)(F)F)cc2)ccc1-n1cnc(Cl)c1 (racemic) [Example 99, N-(4-(4-Chloro-1H-imidazol-1-yl)-3-methoxyphenyl)-4-(3,3-difluoroazetidin-1-yl)-7-(4-(trifluoromethoxy)phenyl)-6,7-dihydro-5H-cyclopenta[d]pyrimidin-2-amine]"
2,5.7,"CCNc1nc(Nc2ccc(-n3cnc(Cl)c3)c(OC)c2)nc2c1COCC2c1ccc(F)c(F)c1 (racemic) [Example 113, N2-(4-(4-chloro-1H-imidazol-1-yl)-3-methoxyphenyl)-8-(3,4-difluorophenyl)-N4-ethyl-7,8-dihydro-5H-pyrano[4,3-d]pyrimidine-2,4-diamine, TFA]"
